Source: patent publication US20010016593A1, “Element giving rapid release of nicotine for transmucosal administration” (priority 1999, published 2001)

How the values were obtained:
[1] = 10 mg tablets swallowed at two hour intervals; cited from earlier work
[2] = pH less than 7; cited from earlier work
[3] = during cigarette smoking; cited from earlier work
[4] = cigarette smoking; cited from earlier work
[5] = Element placed in the mouth: subjectively reported nicotine pulse sensation; format: in vivo, humans; settings: equivalent amounts of nicotine
Description: The experiments of Examples 1-16 above describe the physiological effects of consuming a measured (calculated) dose of nicotine in the manner of the instant invention. Moreover, the inventor has found a distinct physiological and mental sensation associated with the administration of one or more nicotine doses. This is believed to strongly resemble the physiological and mental sensation associated with inhaling a puff of the smoke of burning tobacco, which it is believed have some pleasurable component or consideration thereof on the part of the recipient. There is believed to be some longer-lasting physiological and/or mental satisfaction, or lack of further nicotine effect desire, after one or more administrations of nicotine, just as is the case for most people after smoking a part or all of one or more cigarettes.
The examples as described above are of necessity reported in a subjective manner.

[6] = cited from earlier work
[7] = in vivo; cited from earlier work
[8] = solutions on shaved bellies of cats; cited from earlier work

CN1CCCC1c1cccnc1.O=C(O)C(O)C(O)C(=O)O (stereo not shown) [nicotine tartrate]
effect of swallowed tablets [1]: only a small effect

CN1CCCC1c1cccnc1 (stereo not shown) [nicotine]
bucal absorption [2]: very slow
arterial levels exceeding venous levels [3]: six to ten
time to carry nicotine from the lungs to the brain [4]: less than 20 seconds
efficiency of transmucosal administration compared with smoking [5]: not as efficient as smoking
confusion, memory loss and lack of alertness associated with Alzheimer's disease ([6]; nicotine administration): combated the confusion, memory loss and lack of alertness
local tolerability of the injection ([6]; subcutaneous injection, under some conditions): severe muscular irritation
discriminative sensitivity and reaction time ([6]; subcutaneous injection, patients with dementia of the Alzheimer type): efficacious in improving discriminative sensitivity and reaction time
mental efficiency, rapid information processing, learning, and vigilance [7]: improve mental efficiency, rapid information processing, learning, and vigilance
rate of percutaneous absorption [8]: much more rapidly than nicotine salts
